In US20120232251A1, “GLUCOSE SENSOR” (King's College London, priority 2009, published 2012):
Read-outs that look alike come from different tables or passages of the source.

Columns and labels:
[1] = cited from earlier work
[2] = cited from earlier work; for fluorescence change: autofluorescence of the protein; for Kd: monitored by the autofluorescence of GBP [32], read-out: Kd for glucose
[3] = Steady-state fluorescence intensity response of badan-labelled GBP mutants to glucose in PBS; assay type: binding; conditions: for Δ Fluorescence (%) (maximal change in fluorescence intensity with addition of glucose) / Kd: badan-labelled GBP mutant; for Δ Fluorescence (%) (maximal change in fluorescence intensity with addition of glucose): PBS, saturating glucose; for Kd: in PBS, read-out: Kd (mM) binding constant for glucose; for change in fluorescence intensity on glucose addition (in words): increasing glucose, up to 1M
Experimental: (§1) To label GBP mutants with badan, 50 μM protein was dissolved in 5 mM Tris(2-carboxyethyl)phosphine in phosphate-buffered saline (PBS) pH 7.4, and then a 10-fold excess of dye (500 μM) was added and the mixture incubated overnight at 4° C., after which it was purified on a Sephadex G-25 gel-filtration column.
(§2) Steady-state fluorescence intensity was recorded on a Perkin-Elmer LS50B fluorimeter (Perkin Elmer Instruments, Beaconsfield, UK). The excitation and emission wavelengths of badan were 400 and 550 nm respectively. All data were obtained at room temperature using quartz cuvettes with sample volume of 100 μL. The labelled protein was incubated with increasing amounts of D-glucose for 15-20 min at room temperature before fluorescence was recorded.
(§3) The binding constant, Kd, was calculated from the sigmoidal dose-response curves using Prism 5 software (GraphPad, San Diego, Calif., USA). Lifetime values were obtained from fluorescence transients using the TR12 analysis package (courtesy of Dr. Paul Barber, Gray Cancer Institute of Radiation Oncology and Biology, Oxford University, Oxford, UK). Global analysis was applied to the entire data set of twelve transients as described for the H152C mutant previously.

[4] = Steady-state fluorescence intensity response of badan-labelled GBP mutant to glucose in serum; assay type: binding
Experimental: as §1
Venous blood samples from healthy volunteers were collected in Vacuette tubes. The specimens were incubated at room temperature for 4 days to allow blood clotting and glycolysis. The samples were then centrifuged at 3500 g for 20 min and serum removed, pooled and stored until use. The glucose concentrations of serum samples were determined using a hexokinase-based assay (Sigma).
as §2, with “All data were obtained at room temperature using quartz cuvettes with sample volume of 100 μL.” left out
as §3, with “Global analysis was applied to the entire data set of twelve transients as described for the H152C mutant previously.” left out

[5] = prior-art reports, read-out: Kd / binding constant for glucose

A213R: GBP having a single mutation of A213R (Amiss et al)
Kd ([1]; Amiss et al 2007, read-out: glucose affinity): ~1000 µM

D14E/F16A: GBP two-mutant D14E/F16A, monitored by autofluorescence (Sakaguchi-Mikami et al)
fluorescence change [2]: about 10% | Kd [2]: 3900 µM

E149C A213R L238S: GBP triple mutant coupled to the IANBD fluorophore (Amiss et al)
change in fluorescence intensity upon glucose binding (in words) ([1]; coupled to the IANBD fluorophore, Amiss et al): fifty percent

E149C/A213C/L238S(GGBP): GGBP triple mutant attached to Nile red (Thomas et al 2006)
change (maximal increase) in fluorescence intensity on addition of glucose ([1]; prior-art reports): 50% | change (maximal increase) in fluorescence intensity on addition of glucose ([1]; prior-art reports, listed as GBP attached to Nile red): about 50% | Kd [1, 5]: 7000 µM

E149C/A213S/L238S: GGBP triple mutant reported by Hsieh et al
Kd [1, 5]: 500 µM

F16A: GBP mutant F16A, monitored by autofluorescence (Sakaguchi-Mikami et al)
fluorescence change [2]: about 10% | Kd [2]: 200 µM

GBP: unmutated glucose/galactose binding protein of E. coli
Kd [2]: 0.2 µM

H152C/A213R/L238S: E. coli glucose/galactose binding protein triple mutant labelled at cysteine 152 with badan
Δ Fluorescence (%) (maximal change in fluorescence intensity with addition of glucose) [3]: 200% | Kd [3]: 11 mM | Δ Fluorescence (%) (maximal change in fluorescence intensity with addition of glucose) [4]: 180% | Kd ([4]; read-out: Kd (mM) binding constant for glucose): 14 mM

H152C/A213R: GBP double mutant labelled at 152C with badan
Δ Fluorescence (%) (maximal change in fluorescence intensity with addition of glucose) [3]: ~500% | Kd [3]: 0.6 mM

H152C/F16A: GBP double mutant labelled at 152C with badan
binding of glucose (in words) ([3]; badan-labelled): abolished the binding of glucose | Δ Fluorescence (%) (maximal change in fluorescence intensity with addition of glucose) [3]: 0% | change in fluorescence intensity on glucose addition (in words) ([3]; badan-labelled, listed as F16A mutation with H152C): no change of fluorescence intensity | change in fluorescence intensity on glucose addition (in words) ([3]; badan-labelled, listed as F16A/H152C-badan): no change in fluorescence

H152C/L238S: GBP double mutant labelled at 152C with badan
Δ Fluorescence (%) (maximal change in fluorescence intensity with addition of glucose) [3]: 200% | Kd [3]: 0.6 mM

L238S: GBP mutant L238S previously reported
weakening of the binding of glucose to GBP ([1]; previously reported [31]): ten-fold

L255C: GGBP mutant L255C (Ge et al)
Kd / binding constant for glucose (in words) ([1]; prior-art reports): micromolar range

Q26C: GGBP with Gln at position 26 mutated to Cys (Tolosa et al)
Kd / binding constant for glucose (in words) ([1]; prior-art reports): micromolar range
